Test results as given in ChEMBL document CHEMBL5500396, “Discovery, Multiparametric Optimization, and Solid-State Driven Identification of CHF-6550, a Novel Soft Dual Pharmacology Muscarinic Antagonist and β2 Agonist (MABA) for the Inhaled Treatment of Respiratory Diseases” (J Med Chem, 2024).

How the values were obtained:
in vitro [1] = settings: guinea pig, plasma
Description: Stability in guinea pig plasma assessed as half-life at 5 uM incubated for 120 mins by LC-MS/MS analysis

in vitro [2] = settings: rat, plasma
Description: Stability in rat plasma assessed as half-life at 5 uM incubated for 120 mins by LC-MS/MS analysis

[3] = biological target: Beta-2 adrenergic receptor (Homo sapiens, UniProt P07550)
Description: Displacement of [125I]-Cyanopindolol from human beta2 adrenoceptor assessed as inhibition constant incubated for 1 hrs by Microbeta scintillation counter

[4] = biological target: Muscarinic acetylcholine receptor M3 (Homo sapiens, UniProt P20309)
Muscarinic acetylcholine receptor M3 (Homo sapiens, UniProt P20309), sequence (P20309 whole entry): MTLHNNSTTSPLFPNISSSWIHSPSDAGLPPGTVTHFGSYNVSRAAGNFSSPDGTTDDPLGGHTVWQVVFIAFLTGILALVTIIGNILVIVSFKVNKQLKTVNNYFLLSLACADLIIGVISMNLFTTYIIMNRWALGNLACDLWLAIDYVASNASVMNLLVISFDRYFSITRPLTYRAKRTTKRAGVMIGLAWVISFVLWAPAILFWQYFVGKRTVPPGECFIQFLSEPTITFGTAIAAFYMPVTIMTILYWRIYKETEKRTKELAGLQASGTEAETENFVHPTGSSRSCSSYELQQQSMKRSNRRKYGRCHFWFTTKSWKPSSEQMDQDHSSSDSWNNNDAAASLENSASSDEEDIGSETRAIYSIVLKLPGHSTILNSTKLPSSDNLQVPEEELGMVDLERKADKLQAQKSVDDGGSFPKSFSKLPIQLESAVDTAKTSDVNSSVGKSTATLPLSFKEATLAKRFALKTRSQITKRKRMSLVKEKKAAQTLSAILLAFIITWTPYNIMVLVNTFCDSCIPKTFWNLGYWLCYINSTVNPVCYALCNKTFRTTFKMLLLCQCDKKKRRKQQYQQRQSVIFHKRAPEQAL
Description: Displacement of Scopolamine methyl chloride,[N-methyl-3H] from human muscarinic M3 receptor assessed as inhibition constant incubated for 2 hrs by Microbeta scintillation counter

in vitro [5] = settings: human, plasma
Description: Stability in human plasma assessed as half-life at 5 uM incubated for 120 mins by LC-MS/MS analysis

in vitro [6] = settings: human, lung S9 fraction
Description: Stability in human lung S9 fraction assessed as half-life at 1 uM incubated for 60 mins by LC-MS/MS analysis

in vitro [7] = settings: guinea pig, lung S9 fraction
Description: Stability in guinea pig lung S9 fraction assessed as half-life at 1 uM incubated for 60 mins by LC-MS/MS analysis

in vitro [8] = settings: rat, lung S9 fraction
Description: Stability in rat lung S9 fraction assessed as half-life at 1 uM incubated for 60 mins by LC-MS/MS analysis

in vitro [9] = settings: human, hepatocytes
Description: Metabolic stability in human hepatocytes assessed as clearance measured per 10^6 cells at 1 uM incubated for 90 mins by LC-MS/MS analysis

in vitro [10] = settings: guinea pig, hepatocytes
Description: Metabolic stability in guinea pig hepatocytes assessed as clearance measured per 10^6 cells at 1 uM incubated for 90 mins by LC-MS/MS analysis

in vitro [11] = settings: rat, hepatocytes
Description: Metabolic stability in rat hepatocytes assessed as clearance measured per 10^6 cells at 1 uM incubated for 90 mins by LC-MS/MS analysis

Trachea = assay: Inhibition of carbachol-induced smooth muscle contraction in male albino Dunkin-Hartley guinea pig trachea; settings: Cavia porcellus, read-out: pIC50 (converted)
[12] = biological target: Muscarinic acetylcholine receptor M3 (Cavia porcellus, UniProt Q8VH26); assay: Antagonist activity at M3 receptor in male albino Dunkin-Hartley guinea pig trachea assessed as inhibition of carbachol-induced smooth muscle contraction in presence of propranolol
Muscarinic acetylcholine receptor M3 (Cavia porcellus, UniProt Q8VH26), sequence (Q8VH26 whole entry): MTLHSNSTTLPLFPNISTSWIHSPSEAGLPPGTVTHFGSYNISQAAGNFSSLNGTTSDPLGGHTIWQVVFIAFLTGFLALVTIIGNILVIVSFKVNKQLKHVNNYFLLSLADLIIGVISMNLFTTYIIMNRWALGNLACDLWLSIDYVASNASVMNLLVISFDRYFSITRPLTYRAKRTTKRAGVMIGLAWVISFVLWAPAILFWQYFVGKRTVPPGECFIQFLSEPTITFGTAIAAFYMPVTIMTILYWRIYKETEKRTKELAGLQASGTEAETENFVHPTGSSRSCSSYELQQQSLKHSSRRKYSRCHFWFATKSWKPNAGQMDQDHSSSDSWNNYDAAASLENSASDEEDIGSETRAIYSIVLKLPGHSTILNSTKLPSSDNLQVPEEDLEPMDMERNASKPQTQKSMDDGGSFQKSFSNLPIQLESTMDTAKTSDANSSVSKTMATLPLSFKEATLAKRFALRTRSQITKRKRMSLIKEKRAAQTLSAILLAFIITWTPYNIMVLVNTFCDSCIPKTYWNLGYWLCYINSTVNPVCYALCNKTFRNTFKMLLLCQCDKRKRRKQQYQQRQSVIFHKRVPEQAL

[13] = biological target: Beta-2 adrenergic receptor (Cavia porcellus, UniProt Q8K4Z4); assay: Agonist activity at beta2 adrenoceptor in male albino Dunkin-Hartley guinea pig trachea assessed as inhibition of histamine induced smooth muscle contraction
Beta-2 adrenergic receptor (Cavia porcellus, UniProt Q8K4Z4), sequence (Q8K4Z4 whole entry): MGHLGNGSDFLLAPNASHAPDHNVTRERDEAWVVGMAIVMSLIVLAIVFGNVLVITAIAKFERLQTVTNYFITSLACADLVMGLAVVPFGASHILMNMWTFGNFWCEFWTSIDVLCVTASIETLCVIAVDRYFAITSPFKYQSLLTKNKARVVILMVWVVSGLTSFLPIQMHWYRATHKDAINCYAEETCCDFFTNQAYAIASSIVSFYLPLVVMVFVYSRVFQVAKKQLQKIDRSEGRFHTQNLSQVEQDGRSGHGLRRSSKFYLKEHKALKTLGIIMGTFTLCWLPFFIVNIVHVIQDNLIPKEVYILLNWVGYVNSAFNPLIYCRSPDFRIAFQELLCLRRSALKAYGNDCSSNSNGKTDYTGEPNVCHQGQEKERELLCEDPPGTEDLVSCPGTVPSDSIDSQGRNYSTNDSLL

[14] = Stability in guinea pig lung S9 fraction at 1 uM incubated for 60 mins by LC-MS/MS analysis
Cavia porcellus [15] = assay: Inhibition of acetylcholine induced bronchoconstriction in male albino Dunkin-Hartley guinea pig model at 0.3 nmol/kg, IT(Intratracheal) preadministered with compound followed by acetylcholine addition at 5 to 30 mins and measured 1 hrs post compound treatment relative to control; settings: read-out: INH
Cavia porcellus [16] = assay: Inhibition of histamine induced bronchoconstriction in male albino Dunkin-Hartley guinea pig model at 0.3 nmol/kg, IT(Intratracheal) preadministered with compound followed by histamine addition at 5 to 30 mins and measured 1 hrs post compound treatment relative to control; settings: read-out: INH
Cavia porcellus [17] = species on record: Cavia porcellus; assay: animal or person; settings: albino Dunkin-Hartley, 1 h, read-out: INH
Description: Inhibition of acetylcholine induced bronchoconstriction in male albino Dunkin-Hartley guinea pig model at 0.3 nmol/kg, IT(Intratracheal) preadministered with compound followed by acetylcholine addition at 5 to 30 mins in presence of ICI-118551 and measured 1 hrs post compound treatment relative to control

Cavia porcellus [18] = species on record: Cavia porcellus; assay: animal or person; settings: albino Dunkin-Hartley, 16 h, read-out: INH
Description: Inhibition of acetylcholine induced bronchoconstriction in male albino Dunkin-Hartley guinea pig model at 0.3 nmol/kg, IT(Intratracheal) preadministered with compound followed by acetylcholine addition at 5 to 30 mins in presence of ICI-118551 and measured 16 hrs post compound treatment relative to control

Cavia porcellus [19] = assay: Inhibition of acetylcholine induced bronchoconstriction in male albino Dunkin-Hartley guinea pig model at 0.3 nmol/kg, IT(Intratracheal) preadministered with compound followed by acetylcholine addition at 5 to 30 mins and measured 16 hrs post compound treatment relative to control; settings: read-out: INH
Cavia porcellus [20] = assay: Inhibition of histamine induced bronchoconstriction in male albino Dunkin-Hartley guinea pig model at 0.3 nmol/kg, IT(Intratracheal) preadministered with compound followed by histamine addition at 5 to 30 mins and measured 16 hrs post compound treatment relative to control; settings: read-out: INH
Cavia porcellus [21] = assay: Inhibition of histamine induced bronchoconstriction in male albino Dunkin-Hartley guinea pig model at 1 nmol/kg, IT(Intratracheal) preadministered with compound followed by histamine addition at 5 to 30 mins and measured 1 hrs post compound treatment relative to control; settings: read-out: INH
Cavia porcellus [22] = species on record: Cavia porcellus; assay: animal or person; settings: albino Dunkin-Hartley, 24 h, read-out: INH
Description: Inhibition of acetylcholine induced bronchoconstriction in male albino Dunkin-Hartley guinea pig model at 1 nmol/kg, IT(Intratracheal) preadministered with compound followed by acetylcholine addition at 5 to 30 mins in presence of ICI-118551 and measured 24 hrs post compound treatment relative to control

Cavia porcellus [23] = assay: Inhibition of histamine induced bronchoconstriction in male albino Dunkin-Hartley guinea pig model at 1 nmol/kg, IT(Intratracheal) preadministered with compound followed by histamine addition at 5 to 30 mins and measured 24 hrs post compound treatment relative to control; settings: read-out: INH
Cavia porcellus [24] = species on record: Cavia porcellus; assay: animal or person; settings: albino Dunkin-Hartley, 1 h, read-out: INH; remark: listed apart in the source
Description: Inhibition of acetylcholine induced bronchoconstriction in male albino Dunkin-Hartley guinea pig model at 1 nmol/kg, IT(Intratracheal) preadministered with compound followed by acetylcholine addition at 5 to 30 mins in presence of ICI-118551 and measured 1 hrs post compound treatment relative to control

Cavia porcellus [25] = assay: Inhibition of acetylcholine induced bronchoconstriction in male albino Dunkin-Hartley guinea pig model at 1 nmol/kg, IT(Intratracheal) preadministered with compound followed by acetylcholine addition at 5 to 30 mins and measured 24 hrs post compound treatment relative to control; settings: read-out: INH
Cavia porcellus [26] = assay: Inhibition of acetylcholine induced bronchoconstriction in male albino Dunkin-Hartley guinea pig model at 1 nmol/kg, IT(Intratracheal) preadministered with compound followed by acetylcholine addition at 5 to 30 mins and measured 1 hrs post compound treatment relative to control; settings: read-out: INH

Beta-2 adrenergic receptor (Homo sapiens, UniProt P07550), sequence (P07550 whole entry): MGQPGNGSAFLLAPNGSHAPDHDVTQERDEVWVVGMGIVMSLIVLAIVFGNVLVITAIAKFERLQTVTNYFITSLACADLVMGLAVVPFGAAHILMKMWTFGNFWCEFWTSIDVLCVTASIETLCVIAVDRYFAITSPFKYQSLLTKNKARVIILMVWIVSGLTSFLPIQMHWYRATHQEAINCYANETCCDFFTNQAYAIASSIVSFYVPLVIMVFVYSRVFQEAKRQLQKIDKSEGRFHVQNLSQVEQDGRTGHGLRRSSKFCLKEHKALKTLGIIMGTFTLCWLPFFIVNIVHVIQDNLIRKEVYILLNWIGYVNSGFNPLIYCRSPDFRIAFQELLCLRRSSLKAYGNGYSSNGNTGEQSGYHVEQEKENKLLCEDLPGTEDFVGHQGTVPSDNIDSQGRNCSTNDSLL

Row | SMILES | half-life at 2 h, 5 µM (in vitro [1]) [h] | half-life at 2 h, 5 µM (in vitro [2]) [h] | Ki [3] [nM] | Ki [4] [nM] | half-life at 2 h, 5 µM (in vitro [5]) [h] | half-life at 1 h, 1 µM (in vitro [6]) [h] | half-life at 1 h, 1 µM (in vitro [7]) [h] | half-life at 1 h, 1 µM (in vitro [8]) [h] | hepatocyte CLint at 1.5 h, 1 µM (in vitro [9]) [µL/min/1e6 cells] | hepatocyte CLint at 1.5 h, 1 µM (in vitro [11]) [µL/min/1e6 cells] | IC50 (Trachea) [nM] | IC50 [12] [nM] | IC50 [13] [nM] | also measured
1 | O=C(NCc1ccc(-c2cccc([C@](O)(C(=O)OCC3CCN(Cc4ccccc4)CC3)c3ccccc3)c2)s1)c1ccc(CNC[C@H](O)c2ccc(O)c3[nH]c(=O)ccc23)cc1 | 0.217 | > 2.5 | 2.51 | 0.251 | > 2.5 | 1.47 | 2.1 | 2.1 | 12 | 50 |  |  |  | hepatocyte CLint at 1.5 h, 1 µM (in vitro [10]): 295 µL/min/1e6 cells
2 | O=C(NCCCNC[C@H](O)c1ccc(O)c2[nH]c(=O)ccc12)c1ccc(COc2cccc([C@](O)(C(=O)OCC3CCN(Cc4ccccc4)CC3)c3ccccc3)c2)cc1 |  |  | 0.02 | 0.251 |  |  |  |  |  |  | 0.126 | 0.2 | 0.2 | 
3 | COc1cc(C(=O)NCCCOc2cccc([C@](O)(C(=O)OCC3CCN(Cc4ccccc4)CC3)c3ccccc3)c2)ccc1CNC[C@H](O)c1ccc(O)c2[nH]c(=O)ccc12 | 0.1 | 0.6 | 0.398 | 0.02 | > 2.5 | 4 | 0.483 | 3.95 | 20 | 60 |  | 0.126 | 0.0126 | 
4 | O=C(NCCCNC[C@H](O)c1ccc(O)c2[nH]c(=O)ccc12)c1ccc(COc2cccc([C@@](O)(C(=O)OCC3CCN(Cc4ccccc4)CC3)c3ccccc3)c2)cc1 |  |  | 0.0316 | 3.16 |  |  |  |  |  |  | 0.02 | 5.01 | 0.2 | 
5 | O=C(NCCCCNC[C@H](O)c1ccc(O)c2[nH]c(=O)ccc12)c1ccc(CNC2(C(=O)O[C@H]3CN4CCC3CC4)CCc3ccccc32)cc1 (mixture of isomers) |  |  | 0.501 | 0.126 |  |  |  |  |  |  | 1.58 | 3.16 | 2.51 | 
6 | COc1cc(C(=O)NCCCOc2cccc([C@](O)(C(=O)OCC3CCN(Cc4ccccc4)CC3)c3ccccc3)c2)c(F)cc1CNC[C@H](O)c1ccc(O)c2[nH]c(=O)ccc12 | 0.133 | 0.917 | 0.251 | 0.01 | > 2.5 | 1.92 | 0.433 | 1.85 | 20 | 33 |  | 0.794 | 0.1 | 
7 | CCN1CCC(COC(=O)[C@](O)(c2ccccc2)c2cccc(OCCCNC(=O)c3cc(OC)c(CNC[C@H](O)c4ccc(O)c5[nH]c(=O)ccc45)cc3F)c2)CC1.O=C(O)C(F)(F)F.O=C(O)C(F)(F)F | > 2.5 | 0.933 | 0.501 | 0.0126 | > 2.5 | 4.67 | 4.67 | 4.67 | 2 | 27 | 0.501 | 3.16 | 3.16 | remaining at 1 h, 1 µM [14]: 96.5%; inhibition in vivo at 0.0003 µmol/kg (Cavia porcellus [15]): 78%; inhibition in vivo at 0.0003 µmol/kg (Cavia porcellus [16]): 85%; inhibition in vivo at 0.0003 µmol/kg (Cavia porcellus [17]): 61%; inhibition in vivo at 0.0003 µmol/kg (Cavia porcellus [18]): 51%; inhibition in vivo at 0.0003 µmol/kg (Cavia porcellus [19]): 62%; hepatocyte CLint at 1.5 h, 1 µM (in vitro [10]): 60 µL/min/1e6 cells; inhibition in vivo at 0.0003 µmol/kg (Cavia porcellus [20]): 60%
8 | Cn1nc(C(=O)OCCCCNC[C@H](O)c2ccc(O)c3[nH]c(=O)ccc23)cc1COc1cccc([C@@H](NC(=O)O[C@H]2CN3CCC2CC3)c2ccccc2)c1 |  |  |  |  |  |  |  |  |  |  |  |  |  | inhibition in vivo at 0.001 µmol/kg (Cavia porcellus [21]): 73%; remaining at 1 h, 1 µM [14]: 98.5%; inhibition in vivo at 0.001 µmol/kg (Cavia porcellus [22]): 45%; inhibition in vivo at 0.001 µmol/kg (Cavia porcellus [23]): 51%; inhibition in vivo at 0.001 µmol/kg (Cavia porcellus [24]): 84%; inhibition in vivo at 0.001 µmol/kg (Cavia porcellus [25]): 71%; inhibition in vivo at 0.001 µmol/kg (Cavia porcellus [26]): 93%
